Results reported in paper PMC12152147, “DDB1 engagement defines the selectivity of S656 analogs for cyclin K degradation over CDK inhibition” (EMBO Reports, 2025).
Where “and” joins values, the source holds several entries; their conditions need not be identical. Equal values may be shown once. Read-outs that look alike come from different tables or passages of the source.

Columns and labels:
[1] = biological target: T1, CDK12/Cyclin K (Homo sapiens, UniProt Q9NYV4); experiment: CDK12/CyclinK in vitro kinase assay (BPS kit, Kinase Glo MAX); format: biochemical; details: for in vitro inhibition of CDK12/Cyclin K activity: in % (unit assumed); for IC50: read-out: IC50, in vitro inhibition of CDK12/Cyclin K activity
T1 construct: purchased BPS Bioscience 78298
T1 sequence (Q9NYV4 whole entry): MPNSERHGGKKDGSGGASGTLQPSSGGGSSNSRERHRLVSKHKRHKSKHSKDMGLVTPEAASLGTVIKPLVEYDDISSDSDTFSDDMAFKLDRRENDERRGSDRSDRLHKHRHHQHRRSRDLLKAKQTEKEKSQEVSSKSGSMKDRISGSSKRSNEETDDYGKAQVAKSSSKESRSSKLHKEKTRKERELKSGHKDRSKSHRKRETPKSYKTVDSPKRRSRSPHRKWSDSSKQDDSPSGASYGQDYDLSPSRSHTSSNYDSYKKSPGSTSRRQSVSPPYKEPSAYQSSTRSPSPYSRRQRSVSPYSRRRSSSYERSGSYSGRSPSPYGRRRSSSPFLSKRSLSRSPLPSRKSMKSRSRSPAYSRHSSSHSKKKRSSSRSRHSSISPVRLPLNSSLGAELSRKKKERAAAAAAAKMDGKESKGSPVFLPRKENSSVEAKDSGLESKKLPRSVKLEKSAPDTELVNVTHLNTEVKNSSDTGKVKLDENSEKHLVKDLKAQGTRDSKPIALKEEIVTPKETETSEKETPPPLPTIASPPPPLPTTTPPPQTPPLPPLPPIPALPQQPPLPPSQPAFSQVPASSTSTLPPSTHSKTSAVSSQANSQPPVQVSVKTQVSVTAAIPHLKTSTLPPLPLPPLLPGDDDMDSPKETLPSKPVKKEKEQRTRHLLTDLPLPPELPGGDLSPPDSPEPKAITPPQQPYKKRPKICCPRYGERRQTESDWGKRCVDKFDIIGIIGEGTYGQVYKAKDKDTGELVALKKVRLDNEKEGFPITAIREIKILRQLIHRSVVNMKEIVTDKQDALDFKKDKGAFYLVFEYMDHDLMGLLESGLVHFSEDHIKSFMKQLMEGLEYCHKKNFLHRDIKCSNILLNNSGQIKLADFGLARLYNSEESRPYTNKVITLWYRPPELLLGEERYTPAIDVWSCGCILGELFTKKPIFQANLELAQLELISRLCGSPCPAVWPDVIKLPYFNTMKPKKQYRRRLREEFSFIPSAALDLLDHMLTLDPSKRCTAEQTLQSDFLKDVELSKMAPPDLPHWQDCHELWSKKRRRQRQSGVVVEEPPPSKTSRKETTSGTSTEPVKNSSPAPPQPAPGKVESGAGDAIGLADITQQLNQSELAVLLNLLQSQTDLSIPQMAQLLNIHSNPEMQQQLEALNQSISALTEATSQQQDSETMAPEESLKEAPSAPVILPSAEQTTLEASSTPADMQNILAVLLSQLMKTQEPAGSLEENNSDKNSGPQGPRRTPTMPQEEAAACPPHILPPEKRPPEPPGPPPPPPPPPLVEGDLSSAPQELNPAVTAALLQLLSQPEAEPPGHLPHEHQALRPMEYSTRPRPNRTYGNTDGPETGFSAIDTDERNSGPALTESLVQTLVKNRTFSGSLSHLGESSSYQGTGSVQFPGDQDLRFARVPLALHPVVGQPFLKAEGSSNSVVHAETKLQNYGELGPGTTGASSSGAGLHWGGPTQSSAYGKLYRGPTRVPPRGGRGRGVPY
T1 sequence (O75909 whole entry partner): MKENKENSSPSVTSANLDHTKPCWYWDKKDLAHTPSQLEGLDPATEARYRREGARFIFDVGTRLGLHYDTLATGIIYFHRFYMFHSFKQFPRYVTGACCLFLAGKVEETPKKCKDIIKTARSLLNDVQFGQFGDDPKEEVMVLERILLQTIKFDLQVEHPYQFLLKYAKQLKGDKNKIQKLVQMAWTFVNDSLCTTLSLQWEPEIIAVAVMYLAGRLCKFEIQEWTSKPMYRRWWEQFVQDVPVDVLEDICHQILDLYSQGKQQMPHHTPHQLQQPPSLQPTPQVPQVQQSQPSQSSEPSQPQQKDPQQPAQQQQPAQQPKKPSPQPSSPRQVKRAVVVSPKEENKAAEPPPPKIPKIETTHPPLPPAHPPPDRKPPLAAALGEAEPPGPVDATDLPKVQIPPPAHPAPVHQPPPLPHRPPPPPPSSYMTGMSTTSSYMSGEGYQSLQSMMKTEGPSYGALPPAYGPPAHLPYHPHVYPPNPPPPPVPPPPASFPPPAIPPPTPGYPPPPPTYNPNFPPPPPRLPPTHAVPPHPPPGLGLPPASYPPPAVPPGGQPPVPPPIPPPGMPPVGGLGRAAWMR
Description: (§1) Kinase activity was assessed using the kinase assay kits from BPS Bioscience for CDK1, CDK9 and CDK12 with Kinase Glo MAX in duplicates. Compounds were tested at a single concentration of 1 μM for CDK1 and CDK9 activity, and in a dilution ranging from 0.64 nM to 50 μM for CDK12 activity. Chemiluminescence was read using the Neo Synergy BioTek plate reader.

[2] = tested on: OCI-AML5 cells expressing shRNAs targeting CDK1, 2, 4, 7, 9, cyclin K; experiment: Dose response in OCI-AML5 expressing shRNAs targeting CDK1, 2, 4, 7, 9, cyclin K or control; format: cell-based, H. sapiens; details: for IC50: OCI-AML5, 4 days
[3] = tested on: OCI-AML5 cells; experiment: Dose-response proliferative assay in OCI-AML5 (4 days, CellTiterGlo); format: cell-based, H. sapiens; details: OCI-AML5 cells; read-out: IC50 in AML5
Summary of the method: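 Viability assessed after 4 days of compound exposure at 37 °C, 5% CO2. Compounds tested as 8 dilutions (1:4, 10 μM to 0.5 nM) on 300 OCI-AML5 cells/well grown in αMEM with 10% heat-inactivated FBS and 10 ng/mL GM-CSF.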

[4] = biological target: T2, CDK1 (Homo sapiens, UniProt P06493); experiment: CDK1 in vitro kinase activity, single concentration 1 μM; format: biochemical; details: single concentration 1 μM
T2 construct: purchased BPS Bioscience 79597
T2 sequence (P06493 whole entry): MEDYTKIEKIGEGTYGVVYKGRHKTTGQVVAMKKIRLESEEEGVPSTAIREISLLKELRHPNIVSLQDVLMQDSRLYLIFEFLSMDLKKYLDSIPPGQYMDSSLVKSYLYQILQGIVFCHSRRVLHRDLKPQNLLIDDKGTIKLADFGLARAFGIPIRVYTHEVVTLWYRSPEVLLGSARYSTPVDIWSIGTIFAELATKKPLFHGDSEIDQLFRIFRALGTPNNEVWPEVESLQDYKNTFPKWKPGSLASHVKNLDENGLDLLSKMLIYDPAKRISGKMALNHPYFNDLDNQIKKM
T2 sequence (P14635 whole entry partner): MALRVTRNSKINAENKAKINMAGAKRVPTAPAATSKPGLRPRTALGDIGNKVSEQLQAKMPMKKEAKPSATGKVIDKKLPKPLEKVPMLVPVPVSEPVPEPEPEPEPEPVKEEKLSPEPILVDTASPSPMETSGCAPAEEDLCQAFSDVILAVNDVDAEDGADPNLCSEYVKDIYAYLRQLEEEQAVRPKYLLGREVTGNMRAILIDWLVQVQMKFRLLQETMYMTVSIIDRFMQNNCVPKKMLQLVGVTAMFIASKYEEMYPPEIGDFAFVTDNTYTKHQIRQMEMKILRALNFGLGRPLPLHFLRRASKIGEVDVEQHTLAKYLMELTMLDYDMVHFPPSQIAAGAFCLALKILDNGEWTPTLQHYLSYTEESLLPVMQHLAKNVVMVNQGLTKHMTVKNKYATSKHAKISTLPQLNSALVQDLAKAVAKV
Description: as §1

[5] = tested on: OCI-AML5 cells expressing shRNA targeting CUL4A or CUL4B; experiment: Dose response in OCI-AML5 expressing shRNAs targeting CUL4A, CUL4B or control; format: cell-based, H. sapiens
[6] = tested on: primary AML specimens; experiment: Dose-response assays in primary AML specimens (6 days, CellTiterGlo); format: cell-based, human; details: 6 days, read-out: IC50
Summary of the method: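 Primary AML cells in IMDM/15% BIT with SCF, FLT3L, IL3, G-CSF, SR1 and UM729 were exposed to 8-point 1:4 dilutions (10 μM to 0.5 nM) for 6 days. Viability came from CellTiterGlo luminescence, with % inhibition versus DMSO (0.1%) fitted by nonlinear regression.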

[7] = tested on: cyclin KeGFP; experiment: Cyclin KeGFP reporter system (eGFP/mCherry MFI by flow cytometry);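 for % degradation cyclin K-eGFP: 10 μM compound for 3 h relative to DMSO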; format: cell-based, H. sapiens; details: for MFI of cyclin KeGFP over mCherry: OCI-AML5 G7 clone, 3 h, 10 μM, normalized to DMSO (=100)
Summary of the method: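 Degradation read as eGFP-to-mCherry MFI ratio relative to DMSO controls, from flow cytometry of the selected G7 clone of OCI-AML5 cells transduced with the cyclin KeGFP reporter.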

[8] = biological target: T3, CDK9/CyclinT (Homo sapiens, UniProt P50750); experiment: CDK9/CyclinT in vitro kinase activity, single concentration 1 μM; format: biochemical; details: single concentration 1 μM
T3 construct: purchased BPS Bioscience 79628
T3 sequence (P50750 whole entry): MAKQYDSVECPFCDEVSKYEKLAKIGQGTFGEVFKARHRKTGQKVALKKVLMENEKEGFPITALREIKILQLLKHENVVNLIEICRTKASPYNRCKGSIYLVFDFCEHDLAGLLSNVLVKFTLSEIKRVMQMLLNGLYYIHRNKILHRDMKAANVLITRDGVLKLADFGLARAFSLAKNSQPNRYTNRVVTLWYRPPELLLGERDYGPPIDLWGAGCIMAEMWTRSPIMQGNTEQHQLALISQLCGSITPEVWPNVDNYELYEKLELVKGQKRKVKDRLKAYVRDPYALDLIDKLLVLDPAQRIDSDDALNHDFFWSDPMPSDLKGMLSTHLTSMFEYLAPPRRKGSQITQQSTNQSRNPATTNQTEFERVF
T3 sequence (O60563 whole entry partner): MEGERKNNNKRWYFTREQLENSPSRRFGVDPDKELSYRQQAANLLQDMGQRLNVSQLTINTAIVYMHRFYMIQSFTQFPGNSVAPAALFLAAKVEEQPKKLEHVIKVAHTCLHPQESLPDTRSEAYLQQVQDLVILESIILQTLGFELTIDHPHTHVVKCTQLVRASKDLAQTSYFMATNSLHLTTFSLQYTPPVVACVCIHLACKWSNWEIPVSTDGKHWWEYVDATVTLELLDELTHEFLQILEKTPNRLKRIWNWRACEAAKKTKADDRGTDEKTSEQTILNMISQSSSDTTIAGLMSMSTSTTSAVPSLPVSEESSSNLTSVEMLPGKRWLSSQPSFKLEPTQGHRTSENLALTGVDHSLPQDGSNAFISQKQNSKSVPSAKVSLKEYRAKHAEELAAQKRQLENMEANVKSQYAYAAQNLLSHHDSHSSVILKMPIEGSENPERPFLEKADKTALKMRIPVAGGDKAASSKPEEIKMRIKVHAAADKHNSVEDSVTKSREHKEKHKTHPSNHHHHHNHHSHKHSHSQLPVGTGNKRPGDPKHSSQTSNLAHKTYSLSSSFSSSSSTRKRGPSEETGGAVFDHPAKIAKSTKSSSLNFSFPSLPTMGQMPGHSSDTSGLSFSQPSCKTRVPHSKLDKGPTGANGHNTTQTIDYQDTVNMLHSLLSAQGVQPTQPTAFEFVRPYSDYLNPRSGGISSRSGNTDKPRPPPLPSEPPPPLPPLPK
Description: as §1

`Cc1cccc(Nc2nc(CC(=O)Nc3ncc(C)s3)cs2)n1` [HQ461] was tested, and the “in vitro inhibition of CDK12/Cyclin K activity” value ([1]; Log10 (uM) 1.69897) was 45.8 and 46.66 and 37.27, the IC50 [1] was over 50000 nM and the IC50 ([2]; read-out: IC50, sh CDK1) was 1500 nM and 2300 nM and 2010 nM. For the same compound, the IC50 ([2]; read-out: IC50, sh CDK2) was 1310 nM and 1750 nM and 2460 nM, the IC50 ([2]; read-out: IC50, sh CDK4) was 1240 nM and 1300 nM and 1980 nM and the IC50 ([2]; read-out: IC50, sh CDK7) was 1090 nM and 1800 nM and 1930 nM. The IC50 ([2]; read-out: IC50, sh CDK9) was 1110 nM and 1360 nM and 1320 nM, the IC50 ([2]; read-out: IC50, sh Cyclin K) was 429 nM and 562 nM and 546 nM and the IC50 ([2]; read-out: IC50, sh ctrl) was 1070 nM and 1220 nM and 1040 nM. For the same compound, the Class ([2]; class from shRNA IC50 profile and cyclin K-eGFP degradation) was 1, the IC50 [3] was 1070 nM and the “% CDK1 inhibition” value [4] was 0%. For the same compound, the “Ratio shCUL4A/shCTRL” value ([5]; ratio of IC50 in shCUL4A vs shCTRL OCI-AML5 cells) was 4.25, the IC50 ([6]; primary AML specimen 03H109) was 883 nM and the IC50 ([6]; primary AML specimen 04H055) was 2010 nM. The IC50 ([6]; primary AML specimen 04H096) was 1220 nM, the IC50 ([6]; primary AML specimen 04H138) was 2260 nM and the IC50 ([6]; primary AML specimen 05H113) was 974 nM. The IC50 ([6]; primary AML specimen 05H149) was 1170 nM, the IC50 ([6]; primary AML specimen 05H193) was 1260 nM and the IC50 ([6]; primary AML specimen 06H088) was 1320 nM. It also gave an IC50 ([6]; primary AML specimen 06H117) of 1200 nM, an IC50 ([6]; primary AML specimen 06H151) of 677 nM and an IC50 ([6]; primary AML specimen 07H003) of 2350 nM. It also gave an IC50 ([6]; primary AML specimen 07H131) of 2900 nM, an IC50 ([6]; primary AML specimen 07H144) of 983 nM and an IC50 ([6]; primary AML specimen 07H155) of 2460 nM. It also gave an IC50 ([6]; primary AML specimen 08H018) of 2240 nM, an IC50 ([6]; primary AML specimen 08H021) of 1030 nM and an IC50 ([6]; primary AML specimen 08H056) of 2300 nM. It also gave an IC50 ([6]; primary AML specimen 08H063) of 2420 nM, an IC50 ([6]; primary AML specimen 08H085) of 1050 nM and an IC50 ([6]; primary AML specimen 08H108) of 2180 nM. For the same compound, the IC50 ([6]; primary AML specimen 08H118) was 873 nM, the IC50 ([6]; primary AML specimen 09H016) was 869 nM and the IC50 ([6]; primary AML specimen 09H070) was 2340 nM. It also gave an IC50 ([6]; primary AML specimen 10H014) of 529 nM, an IC50 ([6]; primary AML specimen 10H046) of 1050 nM and an IC50 ([6]; primary AML specimen 10H107) of 1400 nM. It also gave an IC50 ([6]; primary AML specimen 10H127) of 1920 nM, an IC50 ([6]; primary AML specimen 10H161) of 1220 nM and an IC50 ([6]; primary AML specimen 10H174) of 950 nM. For the same compound, the IC50 ([6]; primary AML specimen 11H008) was 1540 nM, the IC50 ([6]; primary AML specimen 11H019) was 1320 nM and the IC50 ([6]; primary AML specimen 11H170) was 3060 nM. For the same compound, the IC50 ([6]; primary AML specimen 11H217) was 1690 nM, the IC50 ([6]; primary AML specimen 11H232) was 1460 nM and the IC50 ([6]; primary AML specimen 12H033) was 2450 nM. The IC50 ([6]; primary AML specimen 12H055) was 1470 nM, the IC50 ([6]; primary AML specimen 12H148) was 1880 nM and the IC50 ([6]; primary AML specimen 13H053) was 2280 nM. For the same compound, the IC50 ([6]; primary AML specimen 15H045) was 931 nM, the IC50 ([6]; primary AML specimen 17H065) was 1420 nM and the “MFI of cyclin KeGFP over mCherry” value [7] was 20.9 and 23.4 and 22.9 and 21.1 and 21.0. The “% degradation cyclin K-eGFP” value ([7]; cyclin K-eGFP reporter) was 79% and the “% CDK9 inhibition” value [8] was 0%.
For `CN(C)C/C=C/C(=O)Nc1ccc(C(=O)N2CCC[C@@H](Nc3ncc(Cl)c(-c4c[nH]c5ccccc45)n3)C2)cc1` [THZ531], the “in vitro inhibition of CDK12/Cyclin K activity” value ([1]; Log10 (uM) 0.30103) was 95.76 and 74.16 and 142.36, the “in vitro inhibition of CDK12/Cyclin K activity” value ([1]; Log10 (uM) -1.09691) was 64.02 and 71.5 and 108.97 and the “in vitro inhibition of CDK12/Cyclin K activity” value ([1]; Log10 (uM) -1.79588) was 50.36 and 51.42 and 41.9. The “in vitro inhibition of CDK12/Cyclin K activity” value ([1]; Log10 (uM) -2.49485) was 37.5 and 37.15 and 28.34, the IC50 [1] was 29 nM and the “potency upon CUL4A or CUL4B downregulation (for SNS-032, THZ531 also DDB1 depletion)” value ([5]; OCI-AML5, 4 days) was “remained unaffected”. It also gave an IC50 ([6]; Homo sapiens, 144 h, primary AML specimen 03H109) of 48.9 nM, an IC50 ([6]; Homo sapiens, 144 h, primary AML specimen 04H055) of 45.2 nM and an IC50 ([6]; Homo sapiens, 144 h, primary AML specimen 04H096) of 44.4 nM. For the same compound, the IC50 ([6]; Homo sapiens, 144 h, primary AML specimen 04H138) was 70.6 nM, the IC50 ([6]; Homo sapiens, 144 h, primary AML specimen 05H113) was 70.4 nM and the IC50 ([6]; Homo sapiens, 144 h, primary AML specimen 05H149) was 411 nM. For the same compound, the IC50 ([6]; Homo sapiens, 144 h, primary AML specimen 05H193) was 73.1 nM, the IC50 ([6]; Homo sapiens, 144 h, primary AML specimen 06H088) was 50 nM and the IC50 ([6]; Homo sapiens, 144 h, primary AML specimen 06H117) was 42.8 nM. The IC50 ([6]; Homo sapiens, 144 h, primary AML specimen 06H151) was 103 nM, the IC50 ([6]; Homo sapiens, 144 h, primary AML specimen 07H003) was 49.5 nM and the IC50 ([6]; Homo sapiens, 144 h, primary AML specimen 07H131) was 734 nM. It also gave an IC50 ([6]; Homo sapiens, 144 h, primary AML specimen 07H144) of 53.8 nM, an IC50 ([6]; Homo sapiens, 144 h, primary AML specimen 07H155) of 125 nM and an IC50 ([6]; Homo sapiens, 144 h, primary AML specimen 08H018) of 292 nM. For the same compound, the IC50 ([6]; Homo sapiens, 144 h, primary AML specimen 08H021) was 27.7 nM, the IC50 ([6]; Homo sapiens, 144 h, primary AML specimen 08H056) was 170 nM and the IC50 ([6]; Homo sapiens, 144 h, primary AML specimen 08H063) was 67.2 nM. For the same compound, the IC50 ([6]; Homo sapiens, 144 h, primary AML specimen 08H085) was 42.1 nM, the IC50 ([6]; Homo sapiens, 144 h, primary AML specimen 08H108) was 48.5 nM and the IC50 ([6]; Homo sapiens, 144 h, primary AML specimen 08H118) was 596 nM. The IC50 ([6]; Homo sapiens, 144 h, primary AML specimen 09H016) was 121 nM, the IC50 ([6]; Homo sapiens, 144 h, primary AML specimen 09H070) was 155 nM and the IC50 ([6]; Homo sapiens, 144 h, primary AML specimen 10H014) was 237 nM. For the same compound, the IC50 ([6]; Homo sapiens, 144 h, primary AML specimen 10H046) was 319 nM, the IC50 ([6]; Homo sapiens, 144 h, primary AML specimen 10H107) was 164 nM and the IC50 ([6]; Homo sapiens, 144 h, primary AML specimen 10H127) was 48.2 nM. The IC50 ([6]; Homo sapiens, 144 h, primary AML specimen 10H161) was 46.6 nM, the IC50 ([6]; Homo sapiens, 144 h, primary AML specimen 10H174) was 146 nM and the IC50 ([6]; Homo sapiens, 144 h, primary AML specimen 11H008) was 47.1 nM. It also gave an IC50 ([6]; Homo sapiens, 144 h, primary AML specimen 11H019) of 174 nM, an IC50 ([6]; Homo sapiens, 144 h, primary AML specimen 11H170) of 798 nM and an IC50 ([6]; Homo sapiens, 144 h, primary AML specimen 11H217) of 46.2 nM. For the same compound, the IC50 ([6]; Homo sapiens, 144 h, primary AML specimen 11H232) was 296 nM, the IC50 ([6]; Homo sapiens, 144 h, primary AML specimen 12H033) was 127 nM and the IC50 ([6]; Homo sapiens, 144 h, primary AML specimen 12H055) was 51.7 nM. It also gave an IC50 ([6]; Homo sapiens, 144 h, primary AML specimen 12H148) of 242 nM, an IC50 ([6]; Homo sapiens, 144 h, primary AML specimen 13H053) of 160 nM and an IC50 ([6]; Homo sapiens, 144 h, primary AML specimen 15H045) of 273 nM. The IC50 ([6]; Homo sapiens, 144 h, primary AML specimen 17H065) was 1080 nM and the “MFI of cyclin KeGFP over mCherry” value [7] was 103.0 and 93.3 and 92.2 and 93.5.
